Measured values: patent publication EP0008888A1, “Beta-lactam antibacterial compounds, their preparation and pharmaceutical compositions containing them” (BEECHAM GROUP PLC, priority 1978, dated 1980)
≈ marks a conversion by molar mass, not a printed value. Read-outs that look alike come from different tables or passages of the source.

Tests used:
Citrobacter freundii E8 [1] = assay: Antibacterial activity (MIC); type: cell-based
Escherichia coli ESS = assay: Antibacterial activity (MIC); type: cell-based
[2] = system: Escherichia coli NCTC 10418; assay: Antibacterial activity (MIC); type: cell-based
Escherichia coli 0111 [3] = assay: Antibacterial activity (MIC); type: cell-based
[4] = system: Escherichia coli ATCC 27166; assay: Antibacterial activity (MIC); type: cell-based
Klebsiella aerogenes A [5] = assay: Antibacterial activity (MIC); type: cell-based
[6] = system: Salmonella typhimurium CT10; assay: Antibacterial activity (MIC); type: cell-based
Shigella sonnei MB11967 = assay: Antibacterial activity (MIC); type: cell-based
[7] = system: Branhamella catarrhalis 1502; assay: Antibacterial activity (MIC); type: cell-based
[8] = system: Bacillus subtilis ATCC 6633; assay: Antibacterial activity (MIC); type: cell-based
[9] = system: Staphylococcus aureus Oxford; assay: Antibacterial activity (MIC); type: cell-based
[10] = system: Streptococcus pneumoniae CN33; assay: Antibacterial activity (MIC); type: cell-based
[11] = system: Streptococcus pyogenes CN10; assay: Antibacterial activity (MIC); type: cell-based
Citrobacter freundii E8 [12] = assay: MIC in a standard test; type: cell-based
Enterobacter cloacoae N1 = assay: MIC in a standard test; type: cell-based
Escherichia coli 0111 [13] = assay: MIC in a standard test; type: cell-based
Escherichia coli JT39 = assay: MIC in a standard test; type: cell-based
Klebsiella aerogenes A [14] = assay: MIC in a standard test; type: cell-based
Proteus mirabilis C977 = assay: MIC in a standard test; type: cell-based
Proteus morganii I580 = assay: MIC in a standard test; type: cell-based; conditions: Morganella morganii
Proteus rettgeri WM16 = assay: MIC in a standard test; type: cell-based; conditions: Providencia rettgeri
Proteus vulgaris WO91 = assay: MIC in a standard test; type: cell-based
Pseudomonas aeruginosa A = assay: MIC in a standard test; type: cell-based
[15] = system: Salmonella typhimurium CT10; assay: MIC in a standard test; type: cell-based; conditions: Salmonella enterica
Serratia marcescens US20 = assay: MIC in a standard test; type: cell-based
Shigella sonnei MB 11967 = assay: MIC in a standard test; type: cell-based; conditions: MB11967
Bacillus subtilis A = assay: MIC in a standard test; type: cell-based
[16] = system: Staphylococcus aureus Oxford; assay: MIC in a standard test; type: cell-based
[17] = system: Staphylococcus aureus Russell; assay: MIC in a standard test; type: cell-based
[18] = system: Staphylococcus aureus 1517; assay: MIC in a standard test; type: cell-based
Streptococcus faecalis I = assay: MIC in a standard test; type: cell-based; conditions: Enterococcus faecalis
[19] = system: Streptococcus pneumoniae CN33; assay: MIC in a standard test; type: cell-based
[20] = system: Streptococcus pyogenes CN10; assay: MIC in a standard test; type: cell-based
[21] = Solution stability of an aqueous solution (uv spectrum); type: physicochemical; conditions: aqueous solution (ca 2 mg ml^-1) stored at 5° for 2 months
[22] = Citrobacter freundii, E8, Citrobacter freundii E8, read-out: MIC
[23] = Escherichia coli, NCTC10418, Escherichia coli NCTC 10418, read-out: MIC
[24] = Escherichia coli, 0111, Escherichia coli 0111, read-out: MIC
[25] = Escherichia coli, ATCC27166, Escherichia coli ATCC 27166, read-out: MIC
[26] = Klebsiella aerogenes, read-out: MIC
[27] = Salmonella enterica, TYPHIMURIUM, read-out: MIC
[28] = Shigella sonnei, MB11967, Shigella sonnei MB11967, read-out: MIC
[29] = Bacillus subtilis, ATCC6633, Bacillus subtilis ATCC 6633, read-out: MIC
[30] = standard test, Escherichia coli JT39, read-out: MIC

Row | Compound | MIC (Citrobacter freundii E8 [12]) | MIC (Enterobacter cloacoae N1) | MIC (Escherichia coli 0111 [13]) | MIC (Escherichia coli JT39; [30]) | MIC (Klebsiella aerogenes A [14]) | MIC (Proteus mirabilis C977) | MIC (Proteus morganii I580) | MIC (Proteus rettgeri WM16) | MIC (Proteus vulgaris WO91) | MIC (Pseudomonas aeruginosa A) | MIC [15] | MIC (Serratia marcescens US20) | MIC (Shigella sonnei MB 11967) | MIC (Bacillus subtilis A) | MIC [16] | MIC [17] | MIC [18] | MIC (Streptococcus faecalis I) | MIC [19] | MIC [20] | other results
1 | CCSC1=C(C(=O)OCc2ccc([N+](=O)[O-])cc2)N2C(=O)CC2C1 (single isomer, unassigned; (-)) [(-), (-) p-Nitrobenzyl 3-ethylthio-7-oxo-1-azabicyclo[3.2.0] hept-2-ene-2-carboxylate] | – | – | – | – | – | – | – | – | – | – | – | – | – | – | – | – | – | – | – | – | MIC (Citrobacter freundii E8 [1]; [22]): > 50 µg/mL; MIC (Escherichia coli ESS): 25 µg/mL (≈ 71.8 µM); MIC [2, 23]: > 50 µg/mL; MIC (Escherichia coli 0111 [3]; [24]): > 50 µg/mL; MIC [4, 25]: 25 µg/mL (≈ 71.8 µM); MIC (Klebsiella aerogenes A [5]; [26]): 25 µg/mL (≈ 71.8 µM); MIC [6, 27]: > 50 µg/mL; MIC (Shigella sonnei MB11967; [28]): > 50 µg/mL; MIC ([7]; Branhamella catarrhalis 1502): 2.5 µg/mL (≈ 7.18 µM); MIC [8, 29]: 50 µg/mL (≈ 144 µM); MIC ([9]; read-out: MIC): > 50 µg/mL; MIC ([10]; Streptococcus pneumoniae CN33): 2.5 µg/mL (≈ 7.18 µM); MIC ([11]; Streptococcus pyogenes CN10): 2.5 µg/mL (≈ 7.18 µM)
2 | CCSC1=C(C(=O)OCc2ccc([N+](=O)[O-])cc2)N2C(=O)CC2C1 (racemic) [(±), p-Nitrobenzyl 3-ethylthio-7-oxo-1-azabicyclo [3,2,0]hept-2-ene-2-carboxylate] | – | – | – | – | – | – | – | – | – | – | – | – | – | – | – | – | – | – | – | – | MIC (Citrobacter freundii E8 [1]; [22]): 50 µg/mL (≈ 144 µM); MIC (Escherichia coli ESS; Escherichia coli, read-out: MIC): 12.5 µg/mL (≈ 35.9 µM); MIC [2, 23]: 50 µg/mL (≈ 144 µM); MIC (Escherichia coli 0111 [3]; [24]): > 50 µg/mL; MIC [4, 25]: 12.5 µg/mL (≈ 35.9 µM); MIC (Klebsiella aerogenes A [5]; [26]): 25 µg/mL (≈ 71.8 µM); MIC [6, 27]: 50 µg/mL (≈ 144 µM); MIC (Shigella sonnei MB11967; [28]): > 50 µg/mL; MIC ([7]; Moraxella catarrhalis, 1502, Branhamella catarrhalis 1502, read-out: MIC): 1.2 µg/mL (≈ 3.44 µM); MIC [8, 29]: 25 µg/mL (≈ 71.8 µM); MIC ([9]; read-out: MIC): > 50 µg/mL; MIC ([10]; Streptococcus pneumoniae, CN33, Streptococcus pneumoniae CN33, read-out: MIC): 1.2 µg/mL (≈ 3.44 µM); MIC ([11]; Streptococcus pyogenes, CN10, Streptococcus pyogenes CN10, read-out: MIC): 1.2 µg/mL (≈ 3.44 µM)
3 | CCSC1=C(C(=O)OC2OC(=O)c3ccccc32)N2C(=O)[C@@H](CC)[C@H]2C1 (stereo partly drawn) [Example 75, Phthalidyl 6β-ethyl - 3-ethylthio - 7 - oxo - 1 - azabicyclo [3.2.0] hept - 2 - ene - 2-carboxylate] | 25 µg/mL (≈ 66.9 µM) | 12.5 µg/mL (≈ 33.5 µM) | 25 µg/mL (≈ 66.9 µM) | 50 µg/mL (≈ 134 µM) | 25 µg/mL (≈ 66.9 µM) | 25 µg/mL (≈ 66.9 µM) | 25 µg/mL (≈ 66.9 µM) | 25 µg/mL (≈ 66.9 µM) | 50 µg/mL (≈ 134 µM) | > 50 µg/mL | 12.5 µg/mL (≈ 33.5 µM) | 50 µg/mL (≈ 134 µM) | 12.5 µg/mL (≈ 33.5 µM) | 5 µg/mL (≈ 13.4 µM) | 5 µg/mL (≈ 13.4 µM) | 12.5 µg/mL (≈ 33.5 µM) | > 50 µg/mL | > 50 µg/mL | 1.2 µg/mL (≈ 3.21 µM) | 5 µg/mL (≈ 13.4 µM) | –
4 | CCSC1=C(C(=O)[O-])N2C(=O)CC2C1.[Na+] (centres unmarked) [Example 7, Sodium 3-ethylthio-7-oxo-1-azabicyclo(3,2,0)hept-2-ene-2-carboxylate] | 2.5 µg/mL | 2.5 µg/mL | 2.5 µg/mL | – | 1 µg/mL | 10 µg/mL | 10 µg/mL | 50 µg/mL | 50 µg/mL | > 100 µg/mL | 2.5 µg/mL | 10 µg/mL | 5.2 µg/mL | 1 µg/mL | 5 µg/mL | 10 µg/mL | > 100 µg/mL | 100 µg/mL | 1 µg/mL | 1 µg/mL | MIC (Escherichia coli JT39; Escherichia coli, JT39): 50 µg/mL
5 | CCSC1=C(C(=O)[O-])N2C(=O)C(CC)C2C1.[Na+] (centres unmarked) | – | – | – | – | – | – | – | – | – | – | – | – | – | – | – | – | – | – | – | – | solution stability [21]: without deterioration
6 | CCSC1=C(C(=O)OCc2ccc([N+](=O)[O-])cc2)N2C(=O)CC2C1 (single isomer, unassigned; (+)) [(+), (+) p-Nitrobenzyl 3-ethylthio-7-oxo-1-azabicyclo[3.2.0] hept-2-ene-2-carboxylate] | – | – | – | – | – | – | – | – | – | – | – | – | – | – | – | – | – | – | – | – | MIC (Citrobacter freundii E8 [1]; Citrobacter freundii E8): 25 µg/mL (≈ 71.8 µM); MIC (Escherichia coli ESS): 5.0 µg/mL (≈ 14.4 µM); MIC ([2]; Escherichia coli NCTC 10418): 25 µg/mL (≈ 71.8 µM); MIC (Escherichia coli 0111 [3]; Escherichia coli 0111): 50 µg/mL (≈ 144 µM); MIC ([4]; Escherichia coli ATCC 27166): 12.5 µg/mL (≈ 35.9 µM); MIC (Klebsiella aerogenes A [5]): 12.5 µg/mL (≈ 35.9 µM); MIC [6]: 50 µg/mL (≈ 144 µM); MIC (Shigella sonnei MB11967; Shigella sonnei MB11967): 50 µg/mL (≈ 144 µM); MIC ([7]; Branhamella catarrhalis 1502): 0.5 µg/mL (≈ 1.44 µM); MIC ([8]; Bacillus subtilis ATCC 6633): 25 µg/mL (≈ 71.8 µM); MIC [9]: >50 µg/mL; MIC ([10]; Streptococcus pneumoniae CN33): 0.5 µg/mL (≈ 1.44 µM); MIC ([11]; Streptococcus pyogenes CN10): 1.2 µg/mL (≈ 3.44 µM)
7 | CNC(=O)OCCSC1=C(C(=O)[O-])N2C(=O)CC2C1.[Na+] (centres unmarked) [Example 37, Sodium 3-(2-methylcarbamoyloxyethylthio)-7-oxo-1-azabicyclo [3.2.0]hept-2-ene-2-carboxylate] | 1.6 µg/mL | 1.6 µg/mL | 0.8 µg/mL | – | 0.4 µg/mL | 1.6 µg/mL | 12.5 µg/mL | 12.5 µg/mL | 12.5 µg/mL | > 50 µg/mL | 0.8 µg/mL | 6.2 µg/mL | 0.8 µg/mL | 0.8 µg/mL | 1.6 µg/mL | 12.5 µg/mL | > 50 µg/mL | 25 µg/mL | ≤ 0.2 µg/mL | ≤ 0.2 µg/mL | MIC (Escherichia coli JT39; Escherichia coli, JT39): 6.2 µg/mL
8 | CCSC1=C(C(=O)O)N2C(=O)[C@@H](C)[C@H]2C1 (relative stereo) [Example 79, Sodium 3 - ethylthio-6β - methyl - 7 - oxo - 1 - azabicyclo [3.2 .O] hept - 2 - ene - 2 - carboxylate] | 6.2 µg/mL | 6.2 µg/mL | 6.2 µg/mL | 6.2 µg/mL | 3.1 µg/mL | 6.2 µg/mL | 25 µg/mL | 25 µg/mL | 25 µg/mL | > 50 µg/mL | 3.1 µg/mL | 12.5 µg/mL | 3.1 µg/mL | 6.2 µg/mL | 3.1 µg/mL | 6.2 µg/mL | > 50 µg/mL | > 50 µg/mL | 0.8 µg/mL | 3.1 µg/mL | –
9 | COCCSC1=C(C(=O)O)N2C(=O)C[C@H]2C1 [Example 32, Sodium 3-(2-methxyethylthio)-7-oxo-1-azabicyclo[3.2.0] hept-2-ene-2-carboxylate] | 3.1 µg/mL | 6.2 µg/mL | 3.1 µg/mL | 6.2 µg/mL | 1.6 µg/mL | 6.2 µg/mL | 50 µg/mL | 50 µg/mL | 50 µg/mL | > 100 µg/mL | 3.1 µg/mL | 12.5 µg/mL | 3.1 µg/mL | 1.6 µg/mL | 6.2 µg/mL | 25 µg/mL | > 50 µg/mL | 50 µg/mL | ≤ 0.2 µg/mL | 1.6 µg/mL | –
